This data set in a line: In vivo treatment of healthy PVG.1N rats with single substances (safety data). To be noted: i.v.; for (severe) side effects (breathing, sleep, food intake, mobility, skin, weight): Picibanil 0.35 μg/rat, PGE2 1 μg/rat, PGE1 1 μg/rat; for Flow cytometric analyzes on blood cells (Teff, Treg, CD4, CD8, NK, NKT cells) compared to placebo: data not shown. The procedure:
Safety data were performed on a total of 4 rats of the healthy strain PVG.1N: they were given the clinically intended final concentrations of the single substances i.v. in the following doses: Picibanil (0.35 μg/rat), PGE2 (1 μg/rat), PGE1 (1 μg/rat) and placebo (PBS).

This note sets out measurements from US10912820B2, “Use of immunomodulatory kits for immunotherapeutic treatment of patients with myeloid leukemias” (Modiblast Pharma GmbH, priority 2014, dated 2021).

With `CCCCC[C@H](O)/C=C/[C@H]1[C@H](O)CC(=O)[C@@H]1CCCCCCC(=O)O` [PGE1, Alprostadil], the “(severe) side effects (breathing, sleep, food intake, mobility, skin, weight)” value is given as “no (severe) side effects” and the “Flow cytometric analyzes on blood cells (Teff, Treg, CD4, CD8, NK, NKT cells) compared to placebo” value is reported as “no difference compared to the placebo controls”.
The like results for `CCCCC[C@H](O)/C=C/[C@H]1[C@H](O)CC(=O)[C@@H]1C/C=C\CCCC(=O)O` [PGE2, Prostaglandin E2] were, in that order, “no (severe) side effects” and “no difference compared to the placebo controls”.
